According to US20230210834A1, “RNA METHYLTRANSFERASE INHIBITOR, SCREENING METHOD THEREFOR, ANTI-CANCER AGENT EFFICACY ASSESSMENT MARKER, AND KIT FOR EFFECTIVELY PREDICTING FTSJ1 INHIBITOR” (National University Corporation Okayama University, priority 2019, published 2023):

Columns and labels:
[1] = system: polyglutamine luciferase reporter; experiment: Screening: polyglutamine luciferase reporter assay in NUGC3 cells (luminescence % of DMSO); type: cell-based, human; settings: polyglutamine luciferase reporter, NUGC3 cells, luminescence relative to DMSO; concentration not given
Protocol: (§1) Human gastric cancer cell line NUGC3 was cultured in a DMEM medium (high glucose with L-glutamine and phenol red, produced by FUJIFILM Wako Pure Chemical Corporation) containing 10% fetal bovine serum (produced by Thermo Fisher Scientific Inc.) and penicillin-streptomycin (produced by FUJIFILM Wako Pure Chemical Corporation) (this medium is simply referred to below as “DMEM+10% FBS+1×P/S”). Then, the NUGC3 cells were seeded in a 60-mm culture dish (produced by BioLite) so that the cells were 80% confluent after 24 hours. Subsequently, 5 μg of a reporter plasmid and 15 μL of a lipofection reagent (transIT-LT1, produced by Mirus Bio LLC) were mixed in 500 μL of Opti-MEM medium (produced by Thermo Fisher Scientific, Inc.) to form a complex, which was added to the medium in which the NUGC3 cells were cultured in the 60-mm culture dish. For use as the reporter plasmid, 5 μg of a polyglutamine luciferase reporter was introduced (in the polyglutamine luciferase reporter, a Renilla luciferase expressed in the IRES was located as an internal standard downstream of the sequence of a firefly luciferase sequence to which polyglutamine was added). Alternatively, a YAP/TAZ activity reporter was used by simultaneously introducing 3 μg of 8×GTIIC plasmid and 2 μg of a Renilla luciferase reporter as an internal standard. After another 24 hours, the cells were exfoliated with a 0.05 w/v % trypsin-0.53 mmol/l EDTA-4Na solution (produced by FUJIFILM Wako Pure Chemical Corporation), and then seeded in a 96-well plate (produced by BioLite) so that the cells were 80% confluent after 24 hours. Twenty-four hours after seeding in the 96-well plate, the medium in each well was replaced with 100 μL of a medium (DMEM+10% FBS+an antibiotic) containing 10 μM or 5 μM of a compound for evaluation. After another 24 hours, the medium containing the compound was removed, and the 96-well plate was transferred on ice. Each well was washed with 100 μL of phosphate buffer (PBS, produced by FUJIFILM Wako Pure Chemical Corporation). Thereafter, 20 μL of Passive Lysis Buffer (1×) contained in a Dual-Luciferase Reporter Assay System (produced by Promega Corporation) was added. The plate was then gently shaken for 15 minutes at room temperature to lyse the cells. After confirming that the cells were lysed, 10 μL of the lysate was transferred from each well to each corresponding well of a white 96-well plate (produced by Greiner Bio-one). To each well of the white 96-well plate was added 100 μL of a mixture of a Luciferase Assay Buffer II and Luciferase Assay Substrate contained in the Dual-Luciferase Reporter Assay System (produced by Promega Corporation), whereby the luminescence of the firefly luciferase was induced, and the luminescence intensity was detected with a microluminometer (produced by Berthold Japan K.K.). Subsequently, 100 μL of a mixture of Stop & Glo Buffer and Stop & Glo Substrate contained in the Dual-Luciferase Reporter Assay System (produced by Promega Corporation) was added, whereby the luminescence of firefly luciferase was quenched while the luminescence of Renilla luciferase was induced, and the luminescence intensity was detected with a microluminometer (produced by Berthold Japan K.K.) in a manner similar to the above. The ratio of the luminescence intensity of the firefly luciferase and the luminescence intensity of the Renilla luciferase was calculated, and the luminescence intensity (%) of the wells containing each compound was calculated with the luminescence intensity of the well containing DMSO (dimethyl sulfoxide, used as a solvent for the compound liquids) taken as 100%. […] Unless otherwise specified, the measured values in the table represent the results obtained by evaluation with the addition of 10 μM of each compound for evaluation.

YAP/TAZ = experiment: Screening: YAP/TAZ activity reporter (8xGTIIC plasmid) assay in NUGC3 cells (luminescence % of DMSO); type: cell-based, human; settings: YAP/TAZ activity reporter (8×GTIIC), NUGC3 cells, luminescence relative to DMSO; concentration not given
Protocol: as §1

Row | Structure (SMILES) | Polyglutamine [1] | 8×GTIIC (YAP/TAZ)
1 | CCOc1cc(S(=O)(=O)C2CCC(NS(=O)(=O)c3ccccc3)CC2)ccc1COC (stereo not drawn) [SA018] | 78.85% | 74.98%
2 | Cc1ccc(C(C)(C)C)cc1S(=O)(=O)C1CCC(NS(=O)(=O)c2ccccc2)CC1 (stereo not drawn) [SA019] | 55.62% | 66.45%
3 | COc1ccc(S(=O)(=O)C2CCC(CS(=O)(=O)c3c(C)c(C)c(C)c(C)c3C)CC2)cc1 (stereo not drawn) [SA020] | 27.71% | 36.19%
4 | CCc1ccc(S(=O)(=O)C2CCC(CS(=O)(=O)c3cc(C)cc(C)c3)CC2)cc1 (stereo not drawn) [SA021] | 44.6% | 70.64%
5 | CCCC(=O)C1CCC(CS(=O)(=O)c2ccc3c(c2)CCC(=O)C3)CC1 (stereo not drawn) [SA022] | 102.2% | 66.88%
6 | Cc1cc(C)c(S(=O)(=O)CC2CC(C)(C)SC(C)(C)C2)cc1C [SA023] | 63.47% | 87.74%
7 | CCCC(=O)C1CCC(CS(=O)(=O)c2ccc(C)cc2C)CC1 (stereo not drawn) [SA025] | 49.45% | 46.27%
8 | CCCC(=O)C1CCC(CS(=O)(=O)c2ccc(C)c(C)c2)CC1 (stereo not drawn) [SA026] | 63.06% | 46.21%
9 | Cc1c(C)c(C)c(S(=O)(=O)CC2CC(C)(C)CC(C)(C)C2)c(C)c1C [SA028] | 60.03% | 59.49%
10 | CCCc1ccc(S(=O)(=O)CC2CCC(C3CC3)CC2)cc1OCC (stereo not drawn) [SA029] | 58.64% | 65.65%
11 | Cc1cccc(S(=O)(=O)CC2CCC(C3CC3)CC2)c1C (stereo not drawn) [SA030] | 86.26% | 73.56%
12 | O=S(=O)(CC1CCC(C2CC2)CC1)c1ccc2c(c1)CCCC2 (stereo not drawn) [SA031] | 62.23% | 76.14%
13 | Cc1cc(C)cc(S(=O)(=O)CC2CCC(C3CC3)CC2)c1 (stereo not drawn) [SA032] | 80.29% | 88.64%
14 | O=S(=O)(CC1CCC(C2CC2)CC1)c1ccc(C(F)(F)F)cc1 (stereo not drawn) [SA033] | 96.01% | 96.16%
15 | Cc1ccccc1S(=O)(=O)CC1CCC(C2CC2)CC1 (stereo not drawn) [SA034] | 77.96% | 87.42%
16 | Cc1ccc(S(=O)(=O)CC2CCC(C3CC3)CC2)c(C)c1 (stereo not drawn) [SA035] | 98.96% | 116.6%
17 | Cc1cccc(C)c1S(=O)(=O)CC1CCC(C2CC2)CC1 (stereo not drawn) [SA036] | 71.57% | 57.59%
18 | Cc1c(C)c(C)c(S(=O)(=O)CC2CCC(C3CC3)CC2)c(C)c1C (stereo not drawn) [SA037] | 42.93% | 35.53%
19 | O=S(=O)(CC1CCC(C2CC2)CC1)c1ccc2c(c1)CCCC2 (stereo not drawn) [SA038] | 69.77% | 94.4%
20 | CCCc1ccc(S(=O)(=O)CC2CCC(C3CC3)CC2)cc1 (stereo not drawn) [SA039] | 97.44% | 56.65%
21 | Cc1ccc(S(=O)(=O)C2CCC(CS(=O)(=O)c3ccccc3)CC2)cc1 (stereo not drawn) [SA040] | 44.87% | 51.54%
22 | Cc1cccc(S(=O)(=O)CC2CCC(C3CC3)CC2)c1 (stereo not drawn) [SA041] | 88.82% | 87.17%
23 | Cc1ccc(S(=O)(=O)CC2CCC(C3CC3)CC2)cc1C (stereo not drawn) [SA042] | 94.62% | 100.9%
24 | CCS(=O)(=O)C1CCC(CS(=O)(=O)c2ccc(C)cc2)CC1 (stereo not drawn) [SA044] | 87.25% | 63.33%
25 | CS(=O)(=O)C1CCC(CS(=O)(=O)c2ccc3c(c2)CCCC3)CC1 (stereo not drawn) [SA046] | 75.23% | 83.81%
26 | O=S(=O)(CC1CCC(S(=O)(=O)c2cccs2)CC1)c1ccc2c(c1)CCCC2 (stereo not drawn) [SA047] | 47.4% | 56.12%
27 | O=S(=O)(CC1CCC(S(=O)(=O)c2ccccc2)CC1)c1ccccc1 (stereo not drawn) [SA049] | 39.58% | 43.7%

Row | Structure (SMILES) | Polyglutamine [1] | 8×GTIIC (YAP/TAZ)
28 | Cc1ccc(S(=O)(=O)CC2CCC(C3CC3)CC2)c(C)c1 (stereo not drawn) [SA050] | 60.42% | 92.26%
29 | Cc1ccc(C)c(S(=O)(=O)CC2CCC(C3CC3)CC2)c1 (stereo not drawn) [SA052] | 47.69% | 54.65%
30 | Cc1cc(C(C)(C)C)cc(C)c1S(=O)(=O)CC1CCC(C2CC2)CC1 (stereo not drawn) [SA053] | 35.39% | 55.02%
31 | Cc1cccc(S(=O)(=O)CC2CCC(C3CC3)CC2)c1 (stereo not drawn) [SA054] | 109.1% | 83.34%
32 | Cc1ccc(S(=O)(=O)CC2CCC(C3CC3)CC2)cc1C (stereo not drawn) [SA055] | 81.09% | 82.18%
33 | Cc1ccc(S(=O)(=O)CC2CCC(C3CC3)CC2)c(C)c1 (stereo not drawn) [SA057] | 79.6% | 73.76%
34 | CC(C)c1ccc(S(=O)(=O)CC2CCC(C3CC3)CC2)cc1 (stereo not drawn) [SA058] | 76.81% | 35.45%
35 | Cc1ccccc1S(=O)(=O)CC1CCC(S(C)(=O)=O)CC1 (stereo not drawn) [SA059] | 100.9% | 88.99%
36 | Cc1ccc(S(=O)(=O)CC2CCC(S(C)(=O)=O)CC2)cc1 (stereo not drawn) [SA060] | 92.41% | 90.52%
37 | CS(=O)(=O)C1CCC(CS(=O)(=O)c2ccc3c(c2)CCCCC3)CC1 (stereo not drawn) [SA061] | 66.4% | 96.27%
38 | Cc1ccc(S(=O)(=O)CC2CCC(S(C)(=O)=O)CC2)cc1 (stereo not drawn) [SA062] | 93.21% | 100.9%
39 | CCc1ccc(S(=O)(=O)CC2CCC(S(C)(=O)=O)CC2)cc1CC (stereo not drawn) [SA063] | 78.75% | 93.35%
40 | Cc1ccc(C)c(S(=O)(=O)CC2CCC(S(C)(=O)=O)CC2)c1 (stereo not drawn) [SA064] | 54.39% | 64.48%
41 | CS(=O)(=O)C1CCC(CS(=O)(=O)c2ccc3c(c2)CCCC3)CC1 (stereo not drawn) [SA065] | 47.58% | 39.43%
42 | CC(C)(C)c1cc(C(C)(C)C)cc(S(=O)(=O)CC2CCC(C3CC3)CC2)c1 (stereo not drawn) [SA066] | 66.16% | 64.4%
43 | Cc1ccc(S(=O)(=O)CC2CCC(C3CC3)CC2)cc1 (stereo not drawn) [SA067] | 75.3% | 75.49%
44 | CCC1CCC(C(C)S(=O)(=O)c2c(C)cc(C(C)(C)C)cc2C)CC1 (stereo not drawn) [SA068] | 81.58% | 110.2%
45 | C=C(CCC)C1CCC(CS(=O)(=O)c2ccc(C)cc2C(C)(C)C)CC1 (stereo not drawn) [SA069] | 76.83% | 67.61%
46 | CC(C)(C)c1cc(C(C)(C)C)cc(S(=O)(=O)CC2CCC(S(C)(=O)=O)CC2)c1 (stereo not drawn) [SA070] | 59.04% | 109.7%
47 | O=S(=O)(CC1CCC(S(=O)(=O)C2CCCCC2)CC1)c1ccccc1 (stereo not drawn) [SA071] | 61.72% | 138.5%
48 | CC1CCC(S(=O)(=O)C2CCC(CS(=O)(=O)c3ccccc3)CC2)CC1 (stereo not drawn) [SA072] | 73.98% | 68.16%
49 | CC(=O)c1ccccc1S(=O)(=O)CC1CCC(S(C)(=O)=O)CC1 (stereo not drawn) [SA074] | 92.5% | 88.44%
50 | CCS(=O)(=O)C1CCC(CS(=O)(=O)c2ccc(C)cc2C)CC1 (stereo not drawn) [SA075] | 110.7% | 95.02%
51 | Cc1ccc(S(=O)(=O)CC2CCC(S(C)(=O)=O)CC2)c(C)c1 (stereo not drawn) [SA076] | 98.03% | 64.29%
52 | CCS(=O)(=O)C1CCC(CS(=O)(=O)c2cc(C(C)C)cc(C)c2C)CC1 (stereo not drawn) [SA077] | 65.09% | 66.59%
53 | Cc1cc(C(C)C)cc(S(=O)(=O)CC2CCC(S(C)(=O)=O)CC2)c1C (stereo not drawn) [SA078] | 87.12% | 95.87%
54 | Cc1c(C)c(C)c(S(=O)(=O)CC2CCC(S(C)(=O)=O)CC2)c(C)c1C (stereo not drawn) [SA080] | 55.01% | 62.45%
